Measured values from the supplement of paper PMC10307832.

What was measured:
Assay in all cases: relative viability (nuclei count vs DMSO), 5 days (fraction); higher = more cells survive
[1] = compound: CC(C)(C)c1cc(NC(=O)Nc2ccc(-c3cn4c(n3)sc3cc(OCCN5CCOCC5)ccc34)cc2)no1 [Quizartinib] + N=C(N)NC(=N)NCCc1ccccc1 [Phenformin] (partner 250 µM)
How it was run: (§1)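 Each reported value is a median over duplicate plates. It expresses relative viability: treated-well nuclei count divided by vehicle-well nuclei count. Lung cancer cell lines in 1536-well plates were dosed by pin tool a day after seeding, alone with one drug or with a fixed anchor-drug dose plus five library-drug doses (not always all listed) in √10 steps, and nuclei were counted after 5 days.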

[2] = compound: COCC[n+]1c2c(n(Cc3cnccn3)c1C)C(=O)c1ccccc1C2=O [YM155] + O=C(CCCCCCC(=O)Nc1ccccc1)NO [Vorinostat] (partner 1 µM)
How it was run: as §1

[3] = compound: COCC[n+]1c2c(n(Cc3cnccn3)c1C)C(=O)c1ccccc1C2=O [YM155] + CS(=O)(=O)CCNCc1ccc(-c2ccc3ncnc(Nc4ccc(OCc5cccc(F)c5)c(Cl)c4)c3c2)o1 [Lapatinib] (partner 2 µM)
How it was run: as §1

[4] = compound: CC(C)(C)c1cc(NC(=O)Nc2ccc(-c3cn4c(n3)sc3cc(OCCN5CCOCC5)ccc34)cc2)no1 [Quizartinib] + O=C(CCCCCCC(=O)Nc1ccccc1)NO [Vorinostat] (partner 1 µM)
How it was run: as §1

Row | Cell Line | relative viability ([1]; first compound 0.001 µM) | relative viability ([1]; first compound 0.003162 µM) | relative viability ([1]; first compound 0.03162 µM) | relative viability ([1]; first compound 0.1 µM) | relative viability ([2]; first compound 0.002 µM) | relative viability ([2]; first compound 0.006325 µM) | relative viability ([2]; first compound 0.02 µM) | relative viability ([2]; first compound 0.06325 µM) | relative viability ([3]; first compound 0.002 µM) | relative viability ([3]; first compound 0.006325 µM) | relative viability ([3]; first compound 0.02 µM) | relative viability ([3]; first compound 0.06325 µM) | relative viability ([4]; first compound 0.001 µM) | relative viability ([4]; first compound 0.003162 µM) | relative viability ([4]; first compound 0.01 µM) | relative viability ([4]; first compound 0.03162 µM) | relative viability ([4]; first compound 0.1 µM) | relative viability ([1]; first compound 0.01 µM)
1 | HCC-44 | 0.203 | 0.323 | 0.169 | 0.261 | 1.01 | 1.11 | 1.12 | 1.1 | 0.994 | 0.998 | 1.02 | 1.08 | 1.23 | 1.09 | 1.13 | 1.21 | 1.11 | 
2 | HCC-78 | 0.687 | 0.832 | 0.574 | 0.73 | 0.469 | 0.458 | 0.429 | 0.472 | 0.672 | 0.806 | 0.968 | 0.833 | 0.453 | 0.44 | 0.445 | 0.419 | 0.445 | 0.707
3 | HCC-366 | 0.615 | 0.549 | 0.601 | 0.547 | 0.321 | 0.393 | 0.469 | 0.279 | 1.07 | 0.986 | 1.01 | 0.625 | 0.307 | 0.381 | 0.302 | 0.243 | 0.386 | 0.577
4 | HCC-827 | 0.372 | 0.385 | 0.402 | 0.404 | 0.875 | 0.961 | 0.835 | 0.835 | 0.169 | 0.198 | 0.177 | 0.191 | 0.797 | 0.881 |  | 0.724 | 0.886 | 0.44
5 | HOP-62 | 0.624 | 0.625 | 0.662 | 0.666 | 0.516 | 0.595 | 0.727 | 0.577 | 0.831 | 1.02 | 0.973 | 0.961 | 0.456 | 0.429 | 0.577 | 0.566 | 0.619 | 0.84
6 | IA-LM |  |  |  |  | 0.863 | 0.932 | 0.942 | 0.97 | 0.781 | 0.741 | 0.652 | 0.283 | 0.71 | 0.811 |  | 0.874 | 0.955 | 
7 | LC-2-ad | 0.498 | 0.639 |  | 0.502 | 0.682 | 0.637 | 0.705 | 0.65 | 0.997 | 0.92 | 0.946 | 0.907 | 0.603 | 0.688 | 0.733 | 0.681 | 0.694 | 0.579
8 | LCLC-97TM1 | 0.396 | 0.379 | 0.464 | 0.375 |  | 0.817 | 0.753 | 0.481 | 1.04 | 1.03 | 1 | 0.551 | 0.573 | 0.52 | 0.685 | 0.677 | 0.767 | 0.421
9 | LCLC-103H | 0.306 | 0.276 | 0.337 | 0.361 | 0.732 | 0.824 | 0.864 | 0.802 |  |  |  |  | 0.743 | 0.735 | 0.663 | 0.812 | 0.779 | 0.341
10 | LK-2 | 0.243 |  | 0.138 | 0.108 | 0.304 | 0.139 | 0.388 | 0.305 | 0.893 | 0.966 | 0.94 | 0.885 | 0.179 | 0.185 | 0.306 | 0.315 | 0.294 | 0.47
11 | LOU-NH91 | 0.693 | 0.679 | 0.682 | 0.862 | 0.883 | 0.921 | 0.949 | 0.932 | 0.828 | 0.778 | 0.778 | 0.788 | 0.86 | 1.04 | 0.899 | 0.721 | 1.12 | 0.723
12 | NCI-H441 | 0.831 | 0.807 |  | 0.958 | 0.741 | 0.716 | 0.741 | 0.268 |  |  |  |  | 0.755 | 0.683 | 0.972 | 0.595 | 0.834 | 0.787
13 | NCI-H522 | 0.591 | 0.652 | 0.622 | 0.542 | 0.846 | 0.78 | 0.933 | 0.932 |  |  |  |  | 0.803 | 0.849 | 0.818 | 0.874 | 0.834 | 0.645
14 | NCI-H1299 |  |  |  |  |  |  |  |  | 0.949 | 0.962 | 0.908 | 0.176 |  |  |  |  |  | 
15 | NCI-H1563 | 0.648 | 0.708 | 0.514 | 0.533 |  |  |  |  | 0.924 | 0.994 | 0.986 | 1.05 |  |  |  |  |  | 0.656
16 | NCI-H1623 | 0.455 | 0.645 | 0.595 | 0.634 |  |  |  |  |  |  |  |  |  |  |  |  |  | 0.599
17 | NCI-H1703 |  |  |  |  |  |  |  |  | 1.11 | 0.982 | 0.452 | 0.179 |  |  |  |  |  | 
18 | NCI-H1792 | 0.259 | 0.2 | 0.346 | 0.243 |  |  |  |  | 0.95 | 0.92 | 0.943 | 0.895 |  |  |  |  |  | 0.244
19 | NCI-H2342 | 0.595 | 0.629 | 0.616 | 0.688 | 0.717 | 0.724 | 0.705 | 0.704 |  |  |  |  | 0.804 | 0.717 | 0.669 | 0.69 | 0.617 | 0.539
20 | SW 900 | 0.618 | 0.685 | 0.586 | 0.72 |  | 0.465 | 0.582 | 0.408 |  |  |  |  | 0.402 | 0.561 | 0.373 | 0.608 | 0.583 | 
